Source: patent US20250186436A1 (4E Therapeutics, Inc., priority 2021, published 2025)
Several values for one entry are separate records, joined by “and”; a condition that tells them apart may be missing. Equal entries are not always repeated. Where two headings read alike, the source gives them in different places.

Columns and labels:
[1] = Plasma and brain concentrations, brain to plasma ratio in SD rats 2 hr after single 10 mg/kg PO (Example 4); format: in vivo; conditions: 2 hr post single PO dose 10 mg/kg; for concentration at 2 hr: Sprague-Dawley, po
Protocol: A brain to plasma ratio of 0.096 (BP=0.096) in SD rats is observed at 2 hr following a single 10 mg/kg dose of 4ET-03-053.

[2] = tested on: eIF4E phosphorylation in mouse tissues; test: In vivo biochemical assay (Western blot) of eIF4E phosphorylation in mouse tissues; conditions: mice, PO 10 mg/kg
Protocol: […] Tissues were acutely dissected and immediately frozen. Frozen samples were later bead homogenized with protease and phosphatase inhibitor cocktails present in the homogenization buffer and then protein was quantified by Bradford assay. 20 μg of protein was run per lane on standard SDS-PAGE. Blots were probed with antibodies against p-eIF4E and total-eIF4E and imaged on a BioRad imaging system. […] However, inhibition of phosphorylation of eIF4E in the brain was not observed, as determined by Western blot analysis of brain tissue from the cortex.

[3] = biological target: T1, recombinant full length human kinase MNK2 (Homo sapiens, UniProt Q9HBH9); test: MNK2 radiometric kinase activity assay; format: biochemical; conditions: radiometric activity assay; read-out: MNK2
T1 construct: the recombinant full length human kinase MNK2; made in house; host or cells: insect cells
T1 sequence (Q9HBH9 whole entry): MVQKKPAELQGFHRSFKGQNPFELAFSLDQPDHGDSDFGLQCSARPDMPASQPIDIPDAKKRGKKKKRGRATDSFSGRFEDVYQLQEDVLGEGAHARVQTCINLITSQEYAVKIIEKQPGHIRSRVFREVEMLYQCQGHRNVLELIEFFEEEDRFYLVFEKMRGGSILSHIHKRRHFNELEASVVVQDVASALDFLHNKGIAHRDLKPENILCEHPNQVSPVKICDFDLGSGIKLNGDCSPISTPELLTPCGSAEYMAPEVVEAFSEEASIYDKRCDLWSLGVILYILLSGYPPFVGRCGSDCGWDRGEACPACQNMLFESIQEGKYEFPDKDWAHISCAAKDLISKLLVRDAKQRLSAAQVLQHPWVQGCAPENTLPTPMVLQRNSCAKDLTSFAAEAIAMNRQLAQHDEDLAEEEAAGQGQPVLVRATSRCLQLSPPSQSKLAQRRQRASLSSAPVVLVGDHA

[4] = PK study in male Sprague-Dawley rats dosed once per day for five days, PO 1 mg/kg, 0.5% HPMC (Example 6); format: in vivo; conditions: 0.5% HPMC suspension
Protocol: Example 6: PK study of 4ET-03-053 in male Sprague-Dawley rats dosed once per day for five days (P0; 1 mg/kg; 0.500HPMC aqueous suspension)
Table 18 provides plasma and brain concentrations of 4ET-03-0053 at 24 hr after the last dose of five daily P0 doses.

[5] = tested on: IL-6 evoked grimace in ICR mice; test: IL-6 evoked grimace test; format: in vivo; conditions: PO 1 hr prior to IL-6 (4ET-03-053: 10 mg/kg)
Protocol: Male and female Institute for Cancer Research (ICR) mice were used in these experiments. Mice were bred in house at University of Texas at Dallas and used at between 12 and 24 weeks of age. Mice were habituated to plexiglass boxes of approximately 4×6 inches in size with openable tops. Habituation took place over 2 days with animals exposed to the boxes for at least 30 min. A blinded observer scored baseline grimacing using the method previously described by Mogil and colleagues (Langford D J, et al. “Coding of facial expressions of pain in the laboratory mouse” Nat Methods 7:447-449 (2010)). On test day, mice were given test compounds 1 hr prior to injection of interleukin 6 (human recombinant IL-6, R&D Systems) which was given at a dose of 0.1 ng in saline via an intraplantar injection as described previously (Moy J K, et al. “The MNK-eIF4E Signaling Axis Contributes to Injury-Induced Nociceptive Plasticity and the Development of Chronic Pain” J Neurosci. 37:7481-7499 (2017)). Test compounds were given orally (PO) via a flexible oral gavage canula built for mice. 4ET-03-053 is efficacious in the IL-6 evoked grimace test in mice (PO; 10 mg/kg).
Effect sizes were calculated per mouse by subtracting the baseline grimace score from the sum of the grimace scores for 1 and 3 hr time points.

[6] = biological target: T2, recombinant full-length human kinase MNK1 (Homo sapiens, UniProt Q9BUB5); test: MNK1 radiometric kinase activity assay; format: biochemical; conditions: radiometric activity assay; read-out: MNK1
T2 construct: the recombinant full-length human kinase MNK1; made in house; host or cells: insect cells
T2 sequence (Q9BUB5 whole entry): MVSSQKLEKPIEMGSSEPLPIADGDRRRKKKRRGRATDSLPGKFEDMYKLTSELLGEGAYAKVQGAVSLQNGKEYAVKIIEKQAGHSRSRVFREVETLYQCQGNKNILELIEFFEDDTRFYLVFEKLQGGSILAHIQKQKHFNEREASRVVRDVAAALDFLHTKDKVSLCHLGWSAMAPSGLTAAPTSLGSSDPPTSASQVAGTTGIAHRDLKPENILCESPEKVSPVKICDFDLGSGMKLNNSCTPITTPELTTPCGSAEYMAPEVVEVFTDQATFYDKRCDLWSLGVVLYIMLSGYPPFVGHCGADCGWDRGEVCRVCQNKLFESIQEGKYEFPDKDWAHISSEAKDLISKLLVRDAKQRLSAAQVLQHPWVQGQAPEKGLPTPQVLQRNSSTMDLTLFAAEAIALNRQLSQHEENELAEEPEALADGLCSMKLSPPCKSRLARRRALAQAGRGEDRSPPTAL

[7] = Liver microsome stability; conditions: mouse, liver microsomes
[8] = individual animals (n = 3), 10 mg/kg
[9] = Sprague-Dawley rats, day 5 of daily PO 1 mg/kg, individual animals, 1 mg/kg
[10] = Sprague-Dawley rats, day 5 of daily PO 1 mg/kg, mean (n = 3)
[11] = male Sprague-Dawley rats, single (first) PO 1 mg/kg dose, individual animals, 1 mg/kg
[12] = male Sprague-Dawley rats, single (first) PO 1 mg/kg dose, mean (n = 3)
[13] = male, Sprague-Dawley, rat, in vivo, po, 1 mg/kg, Sprague-Dawley rats, day 5 of daily PO 1 mg/kg, individual animals
[14] = male, Sprague-Dawley, rat, in vivo, po, 1 mg/kg, Sprague-Dawley rats, day 5 of daily PO 1 mg/kg, mean (n = 3)
[15] = male, Sprague-Dawley, rat, in vivo, po, 1 mg/kg, male Sprague-Dawley rats, single (first) PO 1 mg/kg dose, individual animals
[16] = male, Sprague-Dawley, rat, in vivo, po, 1 mg/kg, male Sprague-Dawley rats, single (first) PO 1 mg/kg dose, mean (n = 3)

For `Cc1cc(Nc2cc(N)ncn2)c(=O)n2c1C(=O)NC21CCC2(CC2)CC1` [4ET-03-053, 6″-((6-Aminopyrimidin-4-yl)amino)-8″-methyl-2″H-dispiro[cyclopropane-1,1′-cyclohexane-4′,3″-imidazo[1,5-a]pyridine]-1″,5″-dione], the “Brain Tissue Homogenate Conc.” value [1, 8] was 406 ng/mL and 323 ng/mL, the “Plasma Conc.” value [1, 8] was 16900 ng/mL and 14400 ng/mL and the Kp at 2 h ([1]; Sprague Dawley, rat, brain/plasma, read-out: Mean Tissue/Plasma Conc. Ratio (brain to plasma ratio)) was 0.096. The concentration at 2 hr ([1]; rat, brain tissue homogenate, 10 mg/kg, individual animals (n = 3), read-out: Brain Tissue Homogenate Conc.) was 319 ng/mL, the concentration at 2 hr ([1]; rat, brain tissue homogenate, 10 mg/kg, mean, read-out: Brain Tissue Homogenate Conc., Mean) was 349 ng/mL and the concentration at 2 hr ([1]; rat, brain, 10 mg/kg, read-out: Brain Mean Tissue) was 1400 ng/g. The concentration at 2 hr ([1]; rat, plasma, 10 mg/kg, individual animals (n = 3), read-out: Plasma Conc.) was 12200 ng/mL, the concentration at 2 hr ([1]; rat, plasma, 10 mg/kg, mean, read-out: Plasma Conc., Mean) was 14500 ng/mL and the “inhibition of phosphorylation of eIF4E in the brain (cortex)” value [2] was “not observed”. For the same compound, the “inhibition of eIF4E phosphorylation in DRGs” value ([2]; 2 hours post dose) was “significant inhibition”, the “inhibition of eIF4E phosphorylation in sciatic nerve” value ([2]; 2 hours post dose) was “significant inhibition” and the “inhibition of eIF4E phosphorylation in spleen” value ([2]; 2 hours post dose) was “significant inhibition”. The IC50 [3] was 20.9 nM, the “time to peak plasma concentration” value ([4]; Sprague-Dawley rats, after five daily PO doses of 1 mg/kg) was ≤ 2 h and the AUCinf [4, 9] was 43537 ng·h/mL and 36277 ng·h/mL. For the same compound, the AUCinf/D [4, 9] was 49825 kg·h/kL and 43537 kg·h/kL and 36277 kg·h/kL, the AUClast [4, 9] was 40882 ng·h/mL and 34335 ng·h/mL and the Clast [4, 9] was 318 ng/mL and 291 ng/mL. For the same compound, the Cmax [4, 9] was 4550 ng/mL and 4500 ng/mL, the Cmax/D [4, 9] was 4150 kg/kL and 4550 kg/kL and 4500 kg/kL and the F [4, 9] was 96.8% and 84.6% and 70.5%. The MRTinf [4, 9] was 7.96 h, the t1/2 [4, 9] was 5.90 h and 6.21 h and the AUCinf/D [4, 10] was 43213 kg·h/kL. The Cmax/D [4, 10] was 4400 kg/kL, the F [4, 10] was 84.0% and the AUCinf [4, 11] was 33302 ng·h/mL and 30451 ng·h/mL. For the same compound, the AUCinf/D [4, 11] was 37178 kg·h/kL and 33302 kg·h/kL and 30451 kg·h/kL, the AUClast [4, 11] was 31340 ng·h/mL and 28992 ng·h/mL and the Clast [4, 11] was 237 ng/mL and 224 ng/mL. The Cmax [4, 11] was 2750 ng/mL, the Cmax/D [4, 11] was 2400 kg/kL and 2750 kg/kL and 2580 kg/kL and the F [4, 11] was 72.2% and 64.7% and 59.2%. The MRTinf [4, 11] was 8.31 h and 7.83 h, the t1/2 [4, 11] was 5.77 h and 5.92 h and the AUCinf/D [4, 12] was 33644 kg·h/kL. For the same compound, the Cmax/D [4, 12] was 2577 kg/kL, the F [4, 12] was 65.4% and the “time to peak plasma concentration” value ([4]; male Sprague-Dawley rats, single PO 1 mg/kg) was ≤ 2 h. The bioavailability ([4]; male, Sprague-Dawley, rat, in vivo, po, 1 mg/kg, Sprague-Dawley rats, after five daily PO doses of 1 mg/kg) was 84%, the concentration at 24 h ([4]; male, Sprague-Dawley, rat, in vivo, po, 1 mg/kg, Sprague-Dawley rats, after five daily PO doses of 1 mg/kg, at 24 hr, read-out: last measurable concentration) was 278 ng/mL and the Cmax ([4]; male, Sprague-Dawley, rat, in vivo, po, 1 mg/kg, Sprague-Dawley rats, after five daily PO doses of 1 mg/kg, read-out: peak plasma concentration (Cmax)) was 4400 ng/mL. For the same compound, the half-life ([4]; male, Sprague-Dawley, rat, in vivo, po, 1 mg/kg, Sprague-Dawley rats, after five daily PO doses of 1 mg/kg, read-out: terminal half-life (t1/2) (converted)) was 6.01 h, the AUC(0-inf) ([4]; male, Sprague-Dawley, rat, in vivo, po, 1 mg/kg, Sprague-Dawley rats, after five daily PO doses of 1 mg/kg, read-out: total systemic exposure (AUCinf)) was 43200 ng·h/mL and the AUC(0-t) [4, 13] was 47100 ng·h/mL. It also gave an MRT inf [4, 13] of 7.89 h, a Tmax [4, 13] of 1 h and an AUC(0-inf) ([4]; male, Sprague-Dawley, rat, in vivo, po, 1 mg/kg, Sprague-Dawley rats, day 5 of daily PO 1 mg/kg, individual animals, read-out: AUCinf) of 49800 ng·h/mL. For the same compound, the concentration at 24 h ([4]; male, Sprague-Dawley, rat, in vivo, po, 1 mg/kg, Sprague-Dawley rats, day 5 of daily PO 1 mg/kg, individual animals, read-out: Clast) was 226 ng/mL, the Cmax ([4]; male, Sprague-Dawley, rat, in vivo, po, 1 mg/kg, Sprague-Dawley rats, day 5 of daily PO 1 mg/kg, individual animals, read-out: Cmax) was 4150 ng/mL and the half-life ([4]; male, Sprague-Dawley, rat, in vivo, po, 1 mg/kg, Sprague-Dawley rats, day 5 of daily PO 1 mg/kg, individual animals, read-out: t1/2 (converted)) was 5.91 h. The AUC(0-t) [4, 14] was 40800 ng·h/mL, the MRT inf [4, 14] was 7.8 h and the Tmax [4, 14] was 1.33 h. For the same compound, the AUC(0-inf) ([4]; male, Sprague-Dawley, rat, in vivo, po, 1 mg/kg, Sprague-Dawley rats, day 5 of daily PO 1 mg/kg, mean (n = 3), read-out: AUCinf) was 43200 ng·h/mL, the concentration at 24 h ([4]; male, Sprague-Dawley, rat, in vivo, po, 1 mg/kg, Sprague-Dawley rats, day 5 of daily PO 1 mg/kg, mean (n = 3), read-out: Clast) was 278 ng/mL and the Cmax ([4]; male, Sprague-Dawley, rat, in vivo, po, 1 mg/kg, Sprague-Dawley rats, day 5 of daily PO 1 mg/kg, mean (n = 3), read-out: Cmax) was 4400 ng/mL. For the same compound, the half-life ([4]; male, Sprague-Dawley, rat, in vivo, po, 1 mg/kg, Sprague-Dawley rats, day 5 of daily PO 1 mg/kg, mean (n = 3), read-out: t1/2 (converted)) was 6.01 h, the AUC(0-t) [4, 15] was 35100 ng·h/mL and the MRT inf [4, 15] was 8.25 h. It also gave a Tmax [4, 15] of 2 h, an AUC(0-inf) ([4]; male, Sprague-Dawley, rat, in vivo, po, 1 mg/kg, male Sprague-Dawley rats, single (first) PO 1 mg/kg dose, individual animals, read-out: AUCinf) of 37200 ng·h/mL and a concentration at 24 hr ([4]; male, Sprague-Dawley, rat, in vivo, po, 1 mg/kg, male Sprague-Dawley rats, single (first) PO 1 mg/kg dose, individual animals, read-out: Clast) of 179 ng/mL. It also gave a Cmax ([4]; male, Sprague-Dawley, rat, in vivo, po, 1 mg/kg, male Sprague-Dawley rats, single (first) PO 1 mg/kg dose, individual animals, read-out: Cmax) of 2400 ng/mL, a half-life ([4]; male, Sprague-Dawley, rat, in vivo, po, 1 mg/kg, male Sprague-Dawley rats, single (first) PO 1 mg/kg dose, individual animals, read-out: t1/2 (converted)) of 5.51 h and an AUC(0-t) [4, 16] of 31800 ng·h/mL. The MRT inf [4, 16] was 8.13 h, the Tmax [4, 16] was 2 h and the AUC(0-inf) ([4]; male, Sprague-Dawley, rat, in vivo, po, 1 mg/kg, male Sprague-Dawley rats, single (first) PO 1 mg/kg dose, mean (n = 3), read-out: AUCinf) was 33600 ng·h/mL. It also gave a concentration at 24 hr ([4]; male, Sprague-Dawley, rat, in vivo, po, 1 mg/kg, male Sprague-Dawley rats, single (first) PO 1 mg/kg dose, mean (n = 3), read-out: Clast) of 213 ng/mL, a Cmax ([4]; male, Sprague-Dawley, rat, in vivo, po, 1 mg/kg, male Sprague-Dawley rats, single (first) PO 1 mg/kg dose, mean (n = 3), read-out: Cmax) of 2580 ng/mL and a half-life ([4]; male, Sprague-Dawley, rat, in vivo, po, 1 mg/kg, male Sprague-Dawley rats, single (first) PO 1 mg/kg dose, mean (n = 3), read-out: t1/2 (converted)) of 5.73 h. It also gave a bioavailability ([4]; male, Sprague-Dawley, rat, in vivo, po, 1 mg/kg, male Sprague-Dawley rats, single PO 1 mg/kg) of 65.4%, a concentration at 24 h ([4]; male, Sprague-Dawley, rat, in vivo, po, 1 mg/kg, male Sprague-Dawley rats, single PO 1 mg/kg, at 24 hr, read-out: last measurable concentration) of 213 ng/mL and a Cmax ([4]; male, Sprague-Dawley, rat, in vivo, po, 1 mg/kg, male Sprague-Dawley rats, single PO 1 mg/kg, read-out: peak plasma concentration (Cmax)) of 2580 ng/mL. The half-life ([4]; male, Sprague-Dawley, rat, in vivo, po, 1 mg/kg, male Sprague-Dawley rats, single PO 1 mg/kg, read-out: terminal half-life (t1/2) (converted)) was 5.73 h, the AUC(0-inf) ([4]; male, Sprague-Dawley, rat, in vivo, po, 1 mg/kg, male Sprague-Dawley rats, single PO 1 mg/kg, read-out: total systemic exposure (AUCinf)) was 33600 ng·h/mL and the “efficacy in the IL-6 evoked grimace test” value [5] was “efficacious”. The IC50 [6] was 215 nM and the half-life [7] was 3.8 h.
